Where “and” joins values, the source holds several entries; their conditions need not be identical. Equal entries are not always repeated. Where two headings read alike, the source gives them in different places.
What was measured:
[1] = Population PK analysis of bortezomib in pediatric ALL/AML patients; type: in vivo, human; conditions: for half-life: human, plasma, intravenous, 1.3 mg/m^2, half-life, geometric mean (%CV)
[2] = in vitro transport studies; ref Takeda, data on file; cited from earlier work
[3] = 1.7 mg/m^2 dose level; cited from earlier work
[4] = test system: blood 20S proteasome activity; conditions: 1.2 and 1.6 mg/m^2 IV; cited from earlier work
CYP2C19 = conditions: cited from earlier work
[5] = varying grades of renal impairment; cited from earlier work
[6] = adult patients, cited from earlier work
efflux pumps = conditions: in vitro transport studies; ref Takeda, data on file; cited from earlier work
cytochrome P450 enzymes = conditions: in decreasing order of relative contributions; cited from earlier work
[7] = 1.6 mg/m^2 dose level; cited from earlier work
CYP3A = conditions: coadministration of ketoconazole; cited from earlier work
[8] = final population PK model, bootstrap, 1.3 mg/m^2 IV repeat dose

Compound: CC(C)C[C@H](NC(=O)[C@H](Cc1ccccc1)NC(=O)c1cnccn1)B(O)O [bortezomib]
- clearance, geometric mean (%CV) ([1]; all patients (N = 104), 2-16 y, individual estimates, 1.3 mg/m^2 IV repeat dose): 7.79 (25%) L/(h·m^2)
- volume of distribution at steady-state, geometric mean (%CV) ([1]; all patients (N = 104), sum of V1, V2, V3): 834 (39%) L/m^2
- Interindividual variability (CV) of CL ([1]; base model): 41.2%
- Interindividual variability (CV) of Q3 ([1]; base model): 38.3%
- Interindividual variability (CV) of V1 ([1]; base model): 50.7%
- Interindividual variance of CL ([1]; final model): 29.7 %CV
- Interindividual variance of Q3 ([1]; final model): 29.8 %CV
- Interindividual variance of V1 ([1]; final model): 34.6 %CV
- V1 (central volume), population median [1, 8]: 10.0 L
- V2 (peripheral volume 1), population median [1, 8]: 32.5 L
- V3 (peripheral volume 2), population median [1, 8]: 975 L
- BSA effect on Q3 (exponent) ([1]; final population PK model, power model): 0.75
- half-life ([1]; α disposition phase, all patients (N = 104)): 0.103 h
- half-life ([1]; β disposition phase, all patients (N = 104)): 1.58 h
- half-life ([1]; γ (terminal/elimination) disposition phase, all patients (N = 104)): 100 h
- BSA-normalized clearance, mean (%CV) ([1]; patients 2 to 11 years old (N = 62)): 8.11 (25%) L/(h·m^2) and 8.11 L/(h·m^2)
- BSA-normalized clearance, mean (%CV) ([1]; patients aged 12 to 16 years (N = 42)): 7.94 (25%) L/(h·m^2) and 7.94 L/(h·m^2)
- apparent permeability [2]: high apparent permeability
- dose-limiting toxicities [3]: Two dose‐limiting toxicities (grade 3 confusion and grade 4 hypotension with fever)
- inhibition of blood 20S proteasome activity [4]: Dose‐dependent inhibition
- time of maximal inhibition of blood 20S proteasome activity after dosing [4]: ≤ 1 h
- effect of omeprazole coadministration on bortezomib PK (CYP2C19): did not alter bortezomib PK
- effect of renal impairment on bortezomib clearance [5]: did not alter bortezomib clearance
- BSA-normalized clearance, mean (%CV) ([6]; 1.0 mg/m^2 dose): 12.9 (70%) L/(h·m^2)
- BSA-normalized clearance, mean (%CV) ([6]; 1.3 mg/m^2 dose): 14.9 (63%) L/(h·m^2)
- substrate for efflux pumps (efflux pumps): not a substrate for efflux pumps
- CYP enzymes mediating hepatic microsomal metabolism (cytochrome P450 enzymes): primary involvement of CYPs 3A4, 2C19, and 1A2
- dose-limiting toxicities [7]: 2 dose‐limiting toxicities of thrombocytopenia
- increase in bortezomib area under the concentration-time curve (CYP3A): 35%

Source: PMC5561493 (Journal of Clinical Pharmacology, 2017)
